Values joined by “and” are separate entries in the source; they are usually repeats but may differ in a detail not shown here. Identical values can stand only once.
What was measured:
Type in all cases: in vivo, human
[1] = test system: acidity (pH) in the gastrointestinal tract; experiment: oral vs intravenous two-way crossover clinical trial, acidity (pH) in the gastrointestinal tract; settings: healthy adults
Source text: Therefore, in order to compare the safety/PK/PD of the compound of the present invention during single intravenous administration and during single oral administration and derive the bioavailability, the clinical trial was designed as a randomized, open-label, single-dose, two-period, two-way crossover trial in healthy adults. The selection/exclusion criteria were the same as in Experimental Example 4. A total of 8 subjects were enrolled, and four subjects each were randomly assigned to sequence group 1 or sequence group 2 in the order in which they passed the screening criteria. All test subjects completed safety, pharmacokinetic, and pharmacodynamic evaluations according to the planned clinical trial schedule.
A screening visit was performed 3 to 28 days before the start of the clinical trial, and hospital admission was performed 2 days before medication. The first phase medication was performed according to the order group randomly assigned on the morning of the day. A stabilizer (200 mg), a freeze-drying auxiliary agent (200 mg), and the previously prepared fexuprazan hydrochloride (40 mg based fexuprazan weight) were dissolved in water for injection (4 mL), an appropriate amount of acid was added thereto. A composition whose pH was adjusted to 4.0 was administered intravenously, or an excipient (100 mg), a disintegrant (5 mg), and the previously prepared fexuprazan hydrochloride (40 mg based on fexuprazan weight) were mixed and compressed to prepare a tablet, which were administered orally. The hospital discharge was performed on the third day of medication. The second phase medication was performed on the morning of the 8th after hospital admission on the 6th day after the first phase medication. Hospital discharge was performed on the 10th day of medication. Subsequently, a close-out visit was performed between 15 and 18 days after medication (FIG. 6).
Testing of the acidity (pH) in the gastrointestinal tract and gastric secretion promoting hormone gastrin were performed from 24 hours before medication to 24 hours after medication. Blood collection for pharmacokinetics and urine collection for pharmacokinetics were performed for 48 hours from the time of medication.

[2] = test system: acidity (pH) in the gastrointestinal tract; experiment: multiple intravenous administration clinical trial (7 days), acidity (pH) in the gastrointestinal tract; settings: healthy adults; for Fraction time pH ≥ 4 over 24 hours post-dose (duration %) / Mean pH / Median pH: 7th day
Method: Subsequent to Experimental Example 4, in order to confirm the change in PD value during multiple administration of the compound of the present invention, the clinical trial was designed to be randomized, double-blind, placebo-controlled in healthy adults between the ages of 19 and 50.
A stabilizer (200 mg), a freeze-drying auxiliary agent (200 mg), and the previously prepared fexuprazan hydrochloride (40 mg based on fexuprazan weight) were dissolved in water for injection (4 mL), and the pH was adjusted to 4.0 by adding an appropriate amount of acid. The prepared solution was put into a vial and dried using a freeze-drying method to prepare a freeze-dried agent.
The freeze-dried composition prepared as above was used, but a total of 28 subject of […], 8, and 8 subjects each were enrolled for three dose groups (20 mg, 40 mg, and 80 mg) based on fexuprazan weight, and each group was randomly assigned to test or control groups in the order that they passed the screening criteria at a ratio of 3:1.
Dose groups 1 and 3 in Table 12 were administered once a day (every 24 hours) (FIG. 8), and dose group 2 was administered twice a day (every 12 hours) for 7 days (FIG. 9).
The acidity (pH) tests in the gastrointestinal tract were performed for 48 hours from the day before administration to 24 hours after the first administration. On the 7th day, it was administered for 24 hours after administration. The measured results are shown in Table 13 and FIGS. 10 to 14 below.

[3] = test system: acidity in the gastrointestinal tract; experiment: injection maintenance therapy test, acidity in the gastrointestinal tract; settings: healthy adults; for Fraction time pH ≥ 6 over 24 hours post-dose (duration %): 40 mg IV over 30 minutes then 4 mg/hr for 71.5 hours; for Fraction time pH ≥ 4 over 24 hours post-dose (duration %) / Mean pH / Median pH: 40 mg IV then 4 mg/hr for 71.5 hours
Method: In order to confirm changes in PD values according to fexuprazan injection maintenance therapy, the test was conducted on eight healthy adults between the ages of 19 and 50. To the test subjects, a total of 100 ml of a solution obtained by mixing 40 mg of a freeze-dried preparation (40 mg/vial) prepared in the same manner as that used in Experimental Example 6, and physiological saline was administered intravenously for 30 minutes. Subsequently, on the first day, a total of 1 L of a solution obtained by mixing 94 mg of freeze-dried formulation (40 mg/vial) and physiological saline was administered intravenously as a maintenance dose for 23.5 hours. On the second and third days, a total of 1 L of a solution obtained by mixing 96 mg of freeze-dried formulation (40 mg/vial) and physiological saline was administered intravenously for 24 hours. That is, as a maintenance dose, a total of 3 L of a solution of 286 mg of lyophilized formulation (40 mg/vial) mixed with physiological saline was administered intravenously for 71.5 hours at a rate of 4 mg/hr. The acidity in the gastrointestinal tract was tested on the first and third days, respectively, and the results are shown in Table 14 and FIG. 15 below.

[4] = intravenous administration (40 mg)

CNCc1cn(S(=O)(=O)c2cccc(F)c2)c(-c2ccc(F)cc2F)c1OC [Fexuprazan, 1-(5-(2,4-difluorophenyl)-1-((3-fluorophenyl)sulfonyl)-4-methoxy-1H-pyrrol-3-yl)-N-methylmethanamine]
Fraction time pH ≥ 4 (%) [1, 4]: 71.6% and 71.6 ± 13.5%
Fraction time pH ≥ 6 (%) [1, 4]: 38.7 ± 10.9%
Mean pH [1, 4]: 4.9 and 4.9 ± 0.5
Median pH [1, 4]: 5.5 ± 0.7
Fraction time pH ≥ 4 (%) ([1]; oral administration (40 mg)): 47.5% and 47.5 ± 14.2%
Fraction time pH ≥ 6 (%) ([1]; oral administration (40 mg)): 20.3 ± 12.8%
Mean pH ([1]; oral administration (40 mg)): 3.9 and 3.9 ± 0.7
Median pH ([1]; oral administration (40 mg)): 3.9 ± 1.2
Fraction time pH ≥ 4 over 24 hours post-dose (duration %) ([2]; 20 mg IV q24h): 55.68 (±14.85) % and 55.68 ± 14.85%
Mean pH ([2]; 20 mg IV q24h): 4.28 ± 0.7
Median pH ([2]; 20 mg IV q24h): 4.29 ± 1.32
Fraction time pH ≥ 6 over 24 hours post-dose (duration %) ([2]; 20 mg IV q24h, 7th day (n = 6)): 25.29 ± 15.41%
Fraction time pH ≥ 4 over 24 hours post-dose (duration %) ([2]; 40 mg IV q12h): 99.85 ± 0.31%
Mean pH ([2]; 40 mg IV q12h): 6.34 ± 0.23
Median pH ([2]; 40 mg IV q12h): 6.33 ± 0.22
Fraction time pH ≥ 6 over 24 hours post-dose (duration %) ([2]; 40 mg IV q12h, 7th day (n = 5)): 74.77 (±13.39) % and 74.77 ± 13.39%
Fraction time pH ≥ 4 over 24 hours post-dose (duration %) ([2]; 80 mg IV q24h): 94.78 ± 8.49%
Mean pH ([2]; 80 mg IV q24h): 6.08 ± 0.5
Median pH ([2]; 80 mg IV q24h): 6.28 ± 0.27
Fraction time pH ≥ 6 over 24 hours post-dose (duration %) ([2]; 80 mg IV q24h, 7th day (n = 6)): 70.07% and 70.07 ± 18.09%
Fraction time pH ≥ 6 over 24 hours post-dose (duration %) ([3]; Day 1): 65.40 ± 18.67%
Fraction time pH ≥ 6 over 24 hours post-dose (duration %) ([3]; Day 3): 76.33 (±15.98) % and 76.33 ± 15.98%
Fraction time pH ≥ 4 over 24 hours post-dose (duration %) ([3]; Day 1): 97.87 ± 1.43%
Mean pH ([3]; Day 1): 6.17 ± 0.36
Median pH ([3]; Day 1): 6.28 ± 0.32
Fraction time pH ≥ 4 over 24 hours post-dose (duration %) ([3]; Day 3): 99.85 ± 0.40%
Mean pH ([3]; Day 3): 6.39 ± 0.35
Median pH ([3]; Day 3): 6.44 ± 0.28

Reference: patent publication US20240415808A1, “Dosage Regimen for Fexuprazan Injection Composition” (Daewoong Pharmaceutical Co., Ltd., priority 2021, published 2024)
